Measurements: PubChem BioAssay AID1963972 (Molecular Pharmacology Branch, DTP, NCI, 2024)

Tested on: 945468-187-T-J2-PDC spheroids viability
Assay: Anticancer human tumor 945468-187-T-J2-PDC patient-derived rectal carcinoma cell line growth inhibition [PI3K]
Conditions: spheroids with HUVEC and MSC; for IC50: curve of first compound; for viability, T/C: stronger effect = lower value; active = viability on the fitted dose curve at most 10% of control; inactive = the rest
How it was run: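 Agents were dosed from a top concentration near clinical Cmax (otherwise 10 microM) in half-log decrements, alone or combined with PI3K inhibitors. The spheroids contain tumor cells plus endothelial (HUVEC) and MSC stroma; viability is measured.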
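Also: spheroids exposed to compounds for seven days before reading.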

CC1(C)CCC(Nc2ncc(C(F)(F)F)c(-c3c[nH]c4c(P(C)(C)=O)c(C#N)ccc34)n2)CN1 (centres undefined) + CC(Nc1ncnc2nc[nH]c12)c1cc2cccc(Cl)c2c(=O)n1-c1ccccc1
665 nM: IC50 (second compound 3.16 µM)
inactive: viability, T/C (second compound 0.0316 µM, first compound 0.0316 µM) 91.5% | viability, T/C (second compound 0.0316 µM, first compound 0.1 µM) 95.5% | viability, T/C (second compound 0.0316 µM, first compound 0.316 µM) 77.8% | viability, T/C (second compound 0.0316 µM, first compound 1 µM) 35% | viability, T/C (second compound 0.0316 µM, first compound 3.16 µM) 30.3% | viability, T/C (second compound 0.0316 µM, first compound 10 µM) 29.3% | viability, T/C (second compound 0.1 µM, first compound 0.0316 µM) 95.6% | viability, T/C (second compound 0.1 µM, first compound 0.1 µM) 92.4% | viability, T/C (second compound 0.1 µM, first compound 0.316 µM) 66.3% | viability, T/C (second compound 0.1 µM, first compound 1 µM) 37.2% | viability, T/C (second compound 0.1 µM, first compound 3.16 µM) 33.9% | viability, T/C (second compound 0.1 µM, first compound 10 µM) 30.5% | viability, T/C (second compound 0.316 µM, first compound 0.0316 µM) 89.7% | viability, T/C (second compound 0.316 µM, first compound 0.1 µM) 86.9% | viability, T/C (second compound 0.316 µM, first compound 0.316 µM) 63.7% | viability, T/C (second compound 0.316 µM, first compound 1 µM) 44.8% | viability, T/C (second compound 0.316 µM, first compound 3.16 µM) 35.1% | viability, T/C (second compound 0.316 µM, first compound 10 µM) 28.1% | viability, T/C (second compound 1 µM, first compound 0.0316 µM) 104% | viability, T/C (second compound 1 µM, first compound 0.1 µM) 81.5% | viability, T/C (second compound 1 µM, first compound 0.316 µM) 56.9% | viability, T/C (second compound 1 µM, first compound 1 µM) 40.7% | viability, T/C (second compound 1 µM, first compound 3.16 µM) 46.3% | viability, T/C (second compound 1 µM, first compound 10 µM) 25.6% | viability, T/C (second compound 3.16 µM, first compound 0.0316 µM) 92.4% | viability, T/C (second compound 3.16 µM, first compound 0.1 µM) 82.4% | viability, T/C (second compound 3.16 µM, first compound 0.316 µM) 69.2% | viability, T/C (second compound 3.16 µM, first compound 1 µM) 38.5% | viability, T/C (second compound 3.16 µM, first compound 3.16 µM) 34.9% | viability, T/C (second compound 3.16 µM, first compound 10 µM) 32.4% | viability, T/C (second compound 10 µM, first compound 0.0316 µM) 125% | viability, T/C (second compound 10 µM, first compound 0.1 µM) 76.3% | viability, T/C (second compound 10 µM, first compound 0.316 µM) 60.4% | viability, T/C (second compound 10 µM, first compound 1 µM) 42.8% | viability, T/C (second compound 10 µM, first compound 3.16 µM) 39% | viability, T/C (second compound 10 µM, first compound 10 µM) 21.5%
736 nM: IC50 (second compound 0.316 µM)
685 nM: IC50 (second compound 1 µM)
667 nM: IC50 (second compound 0.0316 µM)
605 nM: IC50 (second compound 0.1 µM)
548 nM: IC50 (second compound 10 µM)

Cn1cnc2c(F)c(Nc3ccc(Br)cc3Cl)c(C(=O)NOCCO)cc21 + COc1c(OCCCN2CCOCC2)ccc2c3n(c(=NC(=O)c4cnc(N)nc4)nc12)CCN3
active: viability, T/C (second compound 0.316 µM, first compound 3 µM) 6.67% | viability, T/C (second compound 1 µM, first compound 0.949 µM) 10.4% | viability, T/C (second compound 1 µM, first compound 3 µM) 5.87%
> 3000 nM: IC50 (second compound 0.00316 µM) | IC50 (second compound 0.01 µM)
657 nM: IC50 (second compound 0.1 µM)
inactive: viability, T/C (second compound 0.00316 µM, first compound 0.00949 µM) 99.9% | viability, T/C (second compound 0.00316 µM, first compound 0.03 µM) 129% | viability, T/C (second compound 0.00316 µM, first compound 0.0949 µM) 109% | viability, T/C (second compound 0.00316 µM, first compound 0.3 µM) 94.6% | viability, T/C (second compound 0.00316 µM, first compound 0.949 µM) 85.4% | viability, T/C (second compound 0.00316 µM, first compound 3 µM) 81.5% | viability, T/C (second compound 0.01 µM, first compound 0.00949 µM) 125% | viability, T/C (second compound 0.01 µM, first compound 0.03 µM) 146% | viability, T/C (second compound 0.01 µM, first compound 0.0949 µM) 109% | viability, T/C (second compound 0.01 µM, first compound 0.3 µM) 94.1% | viability, T/C (second compound 0.01 µM, first compound 0.949 µM) 92.5% | viability, T/C (second compound 0.01 µM, first compound 3 µM) 67.5% | viability, T/C (second compound 0.0316 µM, first compound 0.00949 µM) 95% | viability, T/C (second compound 0.0316 µM, first compound 0.03 µM) 111% | viability, T/C (second compound 0.0316 µM, first compound 0.0949 µM) 85.4% | viability, T/C (second compound 0.0316 µM, first compound 0.3 µM) 98.6% | viability, T/C (second compound 0.0316 µM, first compound 0.949 µM) 71.9% | viability, T/C (second compound 0.0316 µM, first compound 3 µM) 49.6% | viability, T/C (second compound 0.1 µM, first compound 0.00949 µM) 102% | viability, T/C (second compound 0.1 µM, first compound 0.03 µM) 94.9% | viability, T/C (second compound 0.1 µM, first compound 0.0949 µM) 88.8% | viability, T/C (second compound 0.1 µM, first compound 0.3 µM) 74.1% | viability, T/C (second compound 0.1 µM, first compound 0.949 µM) 38.3% | viability, T/C (second compound 0.1 µM, first compound 3 µM) 17.7% | viability, T/C (second compound 0.316 µM, first compound 0.00949 µM) 39.9% | viability, T/C (second compound 0.316 µM, first compound 0.03 µM) 40% | viability, T/C (second compound 0.316 µM, first compound 0.0949 µM) 34.1% | viability, T/C (second compound 0.316 µM, first compound 0.3 µM) 21.9% | viability, T/C (second compound 0.316 µM, first compound 0.949 µM) 16.3% | viability, T/C (second compound 1 µM, first compound 0.00949 µM) 20% | viability, T/C (second compound 1 µM, first compound 0.03 µM) 18.6% | viability, T/C (second compound 1 µM, first compound 0.0949 µM) 18.1% | viability, T/C (second compound 1 µM, first compound 0.3 µM) 11.3%
2950 nM: IC50 (second compound 0.0316 µM)
< 9.49 nM: IC50 (second compound 0.316 µM) | IC50 (second compound 1 µM)
